{"source": "patent US20240295567A1", "about": "“HYPOXIA BIOMARKER AND USE THEREOF” (Kyoto University, priority 2021, published 2024)", "key": {"[1]": {"test_system": "human prostate cancer-derived cell line DU145", "experiment": "Viable cell quantification (Cell Count Reagent SF) after gamma ray irradiation with or without recombinant SPINK1 and anti-SPINK1 antibody", "type": "cell-based", "conditions": "recombinant SPINK1 purified protein for 24 hours, 0 or 4 Gy gamma rays, 3 further days, FIG. 43", "description": "Human prostate cancer-derived cell line DU145 was seeded into 96-well cell culture plates (4×10^2 cells per well in a 96-well plate when the dose of the subsequent irradiation is 0 Gy; and 1.2×10^3 cells per well when the dose is 4 Gy) and cultured in a CO2 incubator under a normal oxygen concentration overnight. Thereafter, the cells were cultured in serum-free medium for another 24 hours and then cultured in the presence or absence of recombinant SPINK1 purified protein and in the presence or absence of anti-SPINK1 antibody under normal oxygen conditions for 24 hours. The cells were then irradiated with 0 Gy or 4 Gy gamma rays and cultured under normal oxygen conditions for an additional 3 days. Viable cells were then quantified with Cell Count Reagent SF (produced by Nacalai Tesque, Inc., Catalog #07553-44)."}, "[2]": {"test_system": "human prostate cancer-derived cell line DU145", "experiment": "Colony formation test after gamma ray irradiation with or without recombinant SPINK1 protein", "type": "cell-based", "conditions": "rSPINK1 100 ng/ml for 24 hours, 0, 2, 4 or 6 Gy gamma rays, cultured 14 days, FIG. 41", "description": "Human prostate cancer-derived cell line DU145 was cultured in serum-free medium under normal oxygen (20%) conditions for 24 hours. The medium was then replaced with normal medium (containing 5% serum) containing a recombinant SPINK1 protein at a final concentration of 100 ng/ml or with normal medium not containing the recombinant SPINK1 protein. The cells were cultured under normal oxygen conditions for 24 hours. The cells were then irradiated with 0, 2, 4, or 6 Gy gamma rays and cultured for 14 days. A colony formation test was then performed."}}}
{"substance": "recombinant SPINK1 protein: recombinant SPINK1 (serine protease inhibitor Kazal type I) protein added to culture medium (DSLGREAKCYNELNGCTKIYDPVCGTDGNTYPNECVLCFENRKRQTSILIQKSGPC; UniProt P00995 24-79, looked up)", "values": [{"measurement": "radiation resistance of the cells (viable cells)", "setting": "[1]", "result": "radiation resistance of the cells was induced"}, {"measurement": "radiation resistance of the cells (colony formation)", "setting": "[2]", "result": "radiation resistance of the cells is induced"}]}
